From patent US12383619B2, “Use of glutamate modulating agents with immunotherapies to treat cancer” (Biohaven Therapeutics Ltd., priority 2016, dated 2025)
Where two headings read alike, the source gives them in different places.

Columns and labels:
[1] = system: GL261 cells; assay: Orthotopic GL261 glioma model, survival of mice; assay type: in vivo, C57BL/6J mice
Description: In this Example, the effects of the combination of a glutamate modulator, BHV-4157, in combination with an immunotherapeutic agent, anti-PD-1, were compared to either alone in a glioma model substantially as decribed in Zeng, J., et al., Int J Radiat Oncol Biol Phys., 2013 Jun. 1; 86(2):343-349, portions of which are reproduced below.
GL261-Luc cells are grown in Dulbecco's Modified Eagle Medium (DMEM)+10% fetal bovineserum+1% penicillinstreptomycin at 37° C. in a humidified incubator maintained at 5% CO2 and 5% O2 (Gibco).
Female C57BL/6J mice (Harlan), 4 to 6 weeks old or 6 to 8 weeks old, are used for orthotopic glioma experiments as described in Sonabend A M, Velicu S, Ulasov IV, et al. A safety and efficacy study of local delivery of interleukin 12 transgene by PPC polymer in a model of experimental glioma. Anticancer Drugs. 2008;19:133-142. To establish syngeneic gliomas, 130,000 GL261-Luc cells are stereotactically injected in a 1 μl volume into the left striatum over 1 minute into the following coordinates: 1 mm anterior, 1 mm lateral from bregma, and 3 mm deep from the cortical surface. Tumor burden is monitored by luciferase imaging on days 7, 21 and 35 after implantation, and the mice are randomly allocated into treatment arms based on tumor radiance, so that the average tumor radiance in each group is roughly equivalent. The animals are euthanized when they show predetermined signs of neurologic deficits (failure to ambulate, weight loss >20% body mass, lethargy, hunched posture). […] Each arm has 6 to 10 mice in survival experiments. All experiments are repeated at least in triplicate.
Hamster antimurine PD-1 monoclonal antibody producing hybridoma G4 are used to produce antibodies as described in Hirano F, Kaneko K, Tamura H, et al. Blockade of B7-H1 and PD-1 by monoclonal antibodies potentiates cancer therapeutic immunity. Cancer Res. 2005;65:1089-1096.
Female C57BL/6J mice, 4 to 6 weeks old, were implanted intrancranially in the left striatum with 130,000 GL261 cells each. The mice were housed and maintained according to the institutional Animal Care and Use Committee protocol in the Johns Hopkins University Animal Facility. The mice were imaged by bioluminescent IVIS® imaging (Perkin Elmer) at day 7, 21, and 35 to assess tumor burden and randomly assigned to groups, 10 mice per arm, as follows: • 1. Control • 2. anti-PD-1 • 3. Trigriluzole 15 mg/kg • 4. Trigriluzole 30 mg/kg • 5. Trigriluzole 45 mg/kg • 6. anti-PD-1+Trigriluzole 15 mg/kg • 7. anti-PD-1+Trigriluzole 30 mg/kg • 8. anti-PD-1+Trigriluzole 45 mg/kg
Day 0 represents the date of intracranial implantation. Control arm 1 received no treatment. Control arm 2 received αPD-1 alone at a dose of 200 μg/animal via intraperitoneal injection on days 10, 12, 14. Control arms 3, 4 and 5 received BHV-4157 alone at doses of 15, 30 and 45 mg/kg (respectively) via intraperitoneal injection daily beginning on day 10. Control arms 6, 7 and 8 received BHV-4157 at doses of 15, 30 and 45 mg/kg (respectively) via intraperitoneal injection daily beginning on day 10 and αPD-1 at a dose of 200 μg/animal via intraperitoneal injection on days 10, 12, 14.
Animals were euthanized according to humane endpoints including central nervous system disturbances, hunched posture, lethargy, weight loss, and inability to ambulate.

[2] = system: advanced (unresectable or metastatic) melanoma; details: cited from earlier work; for median OS: 3 mg/kg monotherapy group
[3] = system: advanced melanoma; details: 3 mg/kg every 3 weeks, cited from earlier work
[4] = system: advanced (unresectable or metastatic) melanoma; details: cited from earlier work
[5] = target: T1, PD-1 (Homo sapiens, UniProt Q15116); details: 15 subjects, 0.3 mg/kg to 10 mg/kg, across all doses; cited from earlier work
T1 construct: indicate that PD-1 occupancy appears to be dose-independent in this dose range; host or cells: endogenous receptor in dosed subjects

[6] = patients who required re-treatment, ipilimumab monotherapy group
[7] = nivolumab 3 mg/kg every 2 weeks vs dacarbazine

T1 sequence (Q15116 25-288): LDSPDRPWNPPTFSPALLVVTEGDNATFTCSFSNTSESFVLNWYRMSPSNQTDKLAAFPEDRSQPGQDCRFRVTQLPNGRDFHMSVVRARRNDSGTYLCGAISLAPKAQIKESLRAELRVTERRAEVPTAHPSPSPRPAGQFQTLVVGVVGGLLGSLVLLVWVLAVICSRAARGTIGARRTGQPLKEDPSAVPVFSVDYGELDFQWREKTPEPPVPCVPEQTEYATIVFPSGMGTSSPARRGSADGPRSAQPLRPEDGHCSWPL

Molecule: CN(CC(=O)Nc1nc2ccc(OC(F)(F)F)cc2s1)C(=O)CNC(=O)CN [BHV-4157, 2-Amino-N-{[methyl({[6-(trifluoromethoxy)-1,3-benzothiazol-2-yl]carbamoyl}methyl)carbamoyl]methyl}acetamide]
- Percent survival of mice after tumor implantation ([1]; Arm 3: 15 mg/kg i.p. daily from day 10, day 0): 100%
- Percent survival of mice after tumor implantation ([1]; Arm 3: 15 mg/kg i.p. daily from day 10, day 21): 90%
- Percent survival of mice after tumor implantation ([1]; Arm 3: 15 mg/kg i.p. daily from day 10, day 22): 80%
- Percent survival of mice after tumor implantation ([1]; Arm 3: 15 mg/kg i.p. daily from day 10, day 23): 70%
- Percent survival of mice after tumor implantation ([1]; Arm 3: 15 mg/kg i.p. daily from day 10, day 24): 50%
- Percent survival of mice after tumor implantation ([1]; Arm 3: 15 mg/kg i.p. daily from day 10, day 26): 30%
- Percent survival of mice after tumor implantation ([1]; Arm 3: 15 mg/kg i.p. daily from day 10, day 27): 20%
- Percent survival of mice after tumor implantation ([1]; Arm 3: 15 mg/kg i.p. daily from day 10, day 28): 10%
- Percent survival of mice after tumor implantation ([1]; Arm 3: 15 mg/kg i.p. daily from day 10, day 36): 0%
- Percent survival of mice after tumor implantation ([1]; Arm 4: 30 mg/kg i.p. daily from day 10, day 0): 100%
- Percent survival of mice after tumor implantation ([1]; Arm 4: 30 mg/kg i.p. daily from day 10, day 21): 90%
- Percent survival of mice after tumor implantation ([1]; Arm 4: 30 mg/kg i.p. daily from day 10, day 23): 70%
- Percent survival of mice after tumor implantation ([1]; Arm 4: 30 mg/kg i.p. daily from day 10, day 24): 50%
- Percent survival of mice after tumor implantation ([1]; Arm 4: 30 mg/kg i.p. daily from day 10, day 26): 30%
- Percent survival of mice after tumor implantation ([1]; Arm 4: 30 mg/kg i.p. daily from day 10, day 29): 20%
- Percent survival of mice after tumor implantation ([1]; Arm 4: 30 mg/kg i.p. daily from day 10, day 34): 10%
- Percent survival of mice after tumor implantation ([1]; Arm 4: 30 mg/kg i.p. daily from day 10, day 60): 10%
- Percent survival of mice after tumor implantation ([1]; Arm 5: 45 mg/kg i.p. daily from day 10, day 0): 100%
- Percent survival of mice after tumor implantation ([1]; Arm 5: 45 mg/kg i.p. daily from day 10, day 21): 90%
- Percent survival of mice after tumor implantation ([1]; Arm 5: 45 mg/kg i.p. daily from day 10, day 22): 80%
- Percent survival of mice after tumor implantation ([1]; Arm 5: 45 mg/kg i.p. daily from day 10, day 23): 70%
- Percent survival of mice after tumor implantation ([1]; Arm 5: 45 mg/kg i.p. daily from day 10, day 24): 60%
- Percent survival of mice after tumor implantation ([1]; Arm 5: 45 mg/kg i.p. daily from day 10, day 25): 50%
- Percent survival of mice after tumor implantation ([1]; Arm 5: 45 mg/kg i.p. daily from day 10, day 27): 20%
- Percent survival of mice after tumor implantation ([1]; Arm 5: 45 mg/kg i.p. daily from day 10, day 28): 10%
- Percent survival of mice after tumor implantation ([1]; Arm 5: 45 mg/kg i.p. daily from day 10, day 29): 0%

Molecule: Ipilimumab: fully human IgG1 monoclonal antibody that blocks the binding of CTLA-4 to its B7 ligands
- median OS ([2]; patients with CR or PR): not reached
- median OS ([2]; patients with PD): 8 months
- median OS ([2]; patients with SD): 22 months
- OS at 1 year % (95% CI) ([2]; 3 mg/kg monotherapy, n = 137): 46% (37.0, 54.1)
- OS at 2 years % (95% CI) ([2]; 3 mg/kg monotherapy, n = 137): 24% (16.0, 31.5)
- Overall survival: Median Months ([2]; 3 mg/kg monotherapy, n = 137): 10 months
- hazard ratio (HR) for comparison of OS ([2]; ipilimumab monotherapy vs gp100): 0.66
- BORR [2, 6]: 38%
- disease control rate (DCR) (CR+PR+SD) [2, 6]: 75%
- Best overall response: ORR % [3]: 12%
- Complete response % [3]: 1%
- OS: % of patients with event [3]: (40%)
- OS: Median in months [3]: Not reached
- OS: Number of patients with event [3]: 112
- PFS: % of patients with event [3]: (68%)
- PFS: Median in months [3]: 2.8 months
- PFS: Number of patients with event [3]: 188
- Partial response % [3]: 10%
- Response duration: % ongoing [3]: 88%
- Response duration: Median in months ([3]; patients with confirmed complete or partial response): Not reached

Molecule: nivolumab
- Complete response (CR) (number) ([4]; 3 mg/kg every 2 weeks, n = 210): 16
- Objective response (number) ([4]; 3 mg/kg every 2 weeks, n = 210): 84
- Overall survival: Events ([4]; 3 mg/kg every 2 weeks, n = 210): 50
- Overall survival: Events, figure in parentheses ([4]; 3 mg/kg every 2 weeks, n = 210): (23.8)
- Partial response (PR) (number) ([4]; 3 mg/kg every 2 weeks, n = 210): 68
- Progression-free survival: Events ([4]; 3 mg/kg every 2 weeks, n = 210): 108
- Progression-free survival: Events, figure in parentheses ([4]; 3 mg/kg every 2 weeks, n = 210): (51.4)
- Stable disease (SD) (number) ([4]; 3 mg/kg every 2 weeks, n = 210): 35
- Complete response (CR) (%) ([4]; 3 mg/kg every 2 weeks): (7.6%)
- Median duration of response ([4]; 3 mg/kg every 2 weeks): Not reached
- Median time to response ([4]; 3 mg/kg every 2 weeks): 2.1 Months
- Objective response (%) ([4]; 3 mg/kg every 2 weeks): (40.0%)
- Overall survival: Median ([4]; 3 mg/kg every 2 weeks): Not reached
- Overall survival: Rate At 6 months ([4]; 3 mg/kg every 2 weeks): 84.1
- Overall survival: Rate At 12 months ([4]; 3 mg/kg every 2 weeks): 72.9
- Partial response (PR) (%) ([4]; 3 mg/kg every 2 weeks): (32.4%)
- Progression-free survival: Median ([4]; 3 mg/kg every 2 weeks): 5.1
- Progression-free survival: Rate At 6 months ([4]; 3 mg/kg every 2 weeks): 48.0
- Progression-free survival: Rate At 12 months ([4]; 3 mg/kg every 2 weeks): 41.8
- Stable disease (SD) (%) ([4]; 3 mg/kg every 2 weeks): (16.7%)
- Objective response: Odds ratio [4, 7]: 4.06
- Overall survival: Hazard ratio [4, 7]: 0.42
- Progression-free survival: Hazard ratio [4, 7]: 0.43
- mean occupancy rate (PD-1) [5]: 85%
- mean plateau occupancy (PD-1) [5]: 72%
